In ChEMBL document CHEMBL5325509, “Pyrrolidinedione-thiazolidinone hybrid molecules with potent cytotoxic effect in squamous cell carcinoma SCC-15 cells” (Bioorg Med Chem, 2023):
Activity calls are given as the source filed them. The calls are words filed in the database; no cut-off is given here.

Columns and labels:
[1] = Downregulation of PPARgamma mRNA expression in PPARgamma-silenced human SCC-15 cells at 1 uM measured after 24 hrs by RT-PCR analysis; format: functional
SCC-15 [2] = test: Induction of intracellular ROS generation in human SCC-15 cells at 0.001 to 100 uM by DCFH-DA staining based immunofluorescence analysis; format: functional, cell-based; settings: dose 0.001-100 µM, time 24-48 hrs, TDE = time-dependent effect
SCC-15 [3] = test: Cytotoxicity against human SCC-15 cells assessed as decrease in cellular metabolic activity incubated for 24 hrs by resazurin reduction assay; format: functional, cell-based; settings: SCC-15, 24 h
[4] = Downregulation of NRFL2 mRNA expression in PPARgamma-silenced human SCC-15 cells at 1 uM measured after 24 hrs by RT-PCR analysis; format: functional
SCC-15 [5] = test: Induction of intracellular ROS generation in human SCC-15 cells at 50 to 100 uM incubated for 48 hrs by DCFH-DA staining based immunofluorescence analysis; format: functional; settings: dose 50-100 µM
[6] = Upregulation of PPARgamma expression in PPARgamma-silenced human SCC-15 cells at 1 uM incubated for 48 hrs Western blot analysis relative to control; format: functional
[7] = Upregulation of NRFL2 mRNA expression in PPARgamma knockdown human SCC-15 cells at 1 uM measured after 24 hrs by RT-PCR analysis; format: functional
[8] = Upregulation of Caspase-3 activity in human SCC-15 cells at 50 uM measured after 48 hrs in presence of Ac-DEVD-AMC by fluorescence microplate reader analysis; format: functional
BALB/3T3 = test: Cytotoxicity against mouse BALB/3T3 cells assessed reduction in cellular metabolic activity at 0.1 to 100 uM incubated for 24 to 72 hrs by MTT assay; format: toxicity, cell-based; settings: balb/3t3, 100 µM, dose lower 0.1 µM, time lower 24 hrs, dose upper 100 µM, time upper 72 hrs
SCC-15 [9] = test: Cytotoxicity against human SCC-15 cells assessed as LDH release incubated for 24 hrs; format: functional, cell-based; settings: SCC-15, 24 h
SCC-15 [10] = test: Cytotoxicity against human SCC-15 cells assessed as decrease in cellular metabolic activity incubated for 48 hrs by resazurin reduction assay; format: functional, cell-based; settings: SCC-15, 48 h
SCC-15 [11] = test: Cytotoxicity against human SCC-15 cells assessed as LDH release incubated for 48 hrs; format: functional, cell-based; settings: SCC-15, 48 h
SCC-15 [12] = test: Cytotoxicity against human SCC-15 cells assessed as LDH release at 50 nM incubated for 48 hrs relative to control; format: functional
[13] = Downregulation of PCNA expression in PPARgamma-silenced human SCC-15 cells at 1 uM incubated for 48 hrs Western blot analysis relative to siRNA control; format: functional
SCC-15 [14] = test: Cytotoxicity against human SCC-15 cells assessed as LDH release at 1 uM incubated for 48 hrs relative to control; format: functional
[15] = Downregulation of PCNA expression in PPARgamma-silenced human SCC-15 cells at 1 uM incubated for 48 hrs Western blot analysis relative to control; format: functional
SCC-15 [16] = test: Cytotoxicity against human SCC-15 cells assessed as decrease in cellular metabolic activity at 100 uM incubated for 24 hrs by resazurin reduction assay relative to control; format: functional; set-up: scale not given: the % may be the effect or the level left
SCC-15 [17] = test: Cytotoxicity against human SCC-15 cells assessed as LDH release at 10 uM incubated for 48 hrs relative to control; format: functional
[18] = Downregulation of PPARgamma expression in PPARgamma-silenced human SCC-15 cells at 1 uM incubated for 48 hrs Western blot analysis relative to SiRNA control; format: functional
[19] = Downregulation of AHR expression in PPARgamma-silenced human SCC-15 cells at 1 uM incubated for 48 hrs Western blot analysis relative to SiRNA control; format: functional
[20] = Cytotoxicity against human HaCaT cells assessed reduction in cellular metabolic activity incubated for 24 to 72 hrs by MTT assay; format: toxicity, cell-based
HaCaT = test: Cytotoxicity against human HaCaT cells assessed reduction in cellular metabolic activity at 0.1 to 100 uM incubated for 24 to 72 hrs by MTT assay; format: toxicity, cell-based; settings: dose lower 0.1 µM, time lower 24 hrs, dose upper 100 µM, time upper 72 hrs
[21] = Cytotoxicity against mouse BALB/3T3 cells assessed reduction in cellular metabolic activity incubated for 72 hrs by MTT assay; format: toxicity, cell-based
[22] = Upregulation of Caspase-3 activity in human SCC-15 cells at 100 uM measured after 48 hrs in presence of Ac-DEVD-AMC by fluorescence microplate reader analysis; format: functional
[23] = Cytotoxicity against mouse BALB/3T3 cells assessed reduction in cellular metabolic activity incubated for 24 to 72 hrs by MTT assay; format: toxicity, cell-based
SCC-15 [24] = test: Cytotoxicity against human SCC-15 cells assessed as LDH release at 50 uM incubated for 48 hrs relative to control; format: functional
[25] = Upregulation of Caspase-3 activity in human SCC-15 cells at 50 uM measured after 24 hrs in presence of Ac-DEVD-AMC by fluorescence microplate reader analysis; format: functional
[26] = Downregulation of AHR mRNA expression in PPARgamma-silenced human SCC-15 cells at 1 uM measured after 24 hrs by RT-PCR analysis; format: functional
[27] = Downregulation of Ki67 expression in PPARgamma-silenced human SCC-15 cells at 1 uM incubated for 48 hrs Western blot analysis relative to control; format: functional
[28] = Downregulation of PPARgamma expression in PPARgamma-silenced human SCC-15 cells at 1 uM incubated for 48 hrs Western blot analysis relative to control; format: functional
SCC-15 [29] = test: Induction of intracellular ROS generation in human SCC-15 cells at 0.001 to 1 uM incubated for 24 to 48 hrs by DCFH-DA staining based immunofluorescence analysis; format: functional, cell-based; settings: dose 0.001-1 µM, time 24-48 hrs
[30] = Upregulation of Caspase-3 activity in human SCC-15 cells at 100 uM measured after 24 hrs in presence of Ac-DEVD-AMC by fluorescence microplate reader analysis; format: functional
SCC-15 [31] = test: Cytotoxicity against human SCC-15 cells assessed as decrease in cellular metabolic activity at 10 to 100 uM incubated for 48 hrs by resazurin reduction assay relative to control; format: functional; set-up: scale not given: the % may be the effect or the level left; settings: dose 10-100 µM
SCC-15 [32] = test: Cytotoxicity against human SCC-15 cells assessed as LDH release at 100 uM incubated for 48 hrs relative to control; format: functional
[33] = Downregulation of Ki67 expression in PPARgamma-silenced human SCC-15 cells at 1 uM incubated for 48 hrs Western blot analysis relative to siRNA control; format: functional
[34] = Downregulation of AHR mRNA expression in human SCC-15 cells at 1 uM measured after 24 hrs by RT-PCR analysis (reference value: 17.30 %); format: functional
[35] = Cytotoxicity against human HaCaT cells assessed reduction in cellular metabolic activity incubated for 72 hrs by MTT assay; format: toxicity, cell-based
SCC-15 [36] = test: Induction of intracellular ROS generation in human SCC-15 cells incubated for 24 to 48 hrs by DCFH-DA staining based immunofluorescence analysis; format: functional, cell-based; settings: dose 0.001-100 µM, time 24-48 hrs
[37] = Downregulation of PPARgamma mRNA expression in human SCC-15 cells at 1 uM measured after 24 hrs by RT-PCR analysis (reference value: 79.68 %); format: functional
[38] = Downregulation of NRFL2 mRNA expression in human SCC-15 cells at 1 uM measured after 24 hrs by RT-PCR analysis (reference value: 18.36 %); format: functional
SCC-15 [39] = test: Induction of intracellular ROS generation in human SCC-15 cells at 0.001 to 10 uM incubated for 24 hrs by DCFH-DA staining based immunofluorescence analysis; format: functional, cell-based; settings: dose 0.001-10 µM
Glioblastoma cell line = test: Cytotoxicity against human Glioblastoma cell line assessed as inhibition of cell growth measured at 72 hrs; format: functional, cell-based
SCC-15 [40] = test: Cytotoxicity against human SCC-15 cells assessed as LDH release at 1 to 100 uM incubated for 48 hrs relative to control; format: functional; settings: dose 1-100 µM
Leukemic tumor cell line = test: Cytotoxicity against human Leukemic tumor cell line assessed as inhibition of cell growth measured at 72 hrs; format: functional, cell-based
SCC-15 [41] = test: Induction of intracellular ROS generation in human SCC-15 cells at 50 to 100 uM incubated for 24 hrs by DCFH-DA staining based immunofluorescence analysis; format: functional; settings: dose 50-100 µM
[42] = Upregulation of PPARgamma expression in PPARgamma-silenced human SCC-15 cells at 1 uM incubated for 48 hrs Western blot analysis relative to SiRNA control; format: functional
SCC-15 [43] = test: Induction of intracellular ROS generation in human SCC-15 cells at 10 to 100 uM incubated for 48 hrs by DCFH-DA staining based immunofluorescence analysis; format: functional; settings: dose 10-100 µM
SCC-15 [44] = test: Induction of intracellular ROS generation in human SCC-15 cells at 0.001 to 10 uM incubated for 48 hrs by DCFH-DA staining based immunofluorescence analysis; format: functional; settings: dose 0.001-10 µM
Lung cancer cell line = test: Cytotoxicity against human Lung cancer cell line assessed as inhibition of cell growth measured at 72 hrs; format: functional, cell-based
Colon carcinoma cell = test: Cytotoxicity against human Colon carcinoma cell assessed as inhibition of cell growth measured at 72 hrs; format: functional, cell-based
Breast carcinoma cell = test: Cytotoxicity against human Breast carcinoma cell assessed as inhibition of cell growth measured at 72 hrs; format: functional, cell-based
SCC-15 [45] = test: Cytotoxicity against human SCC-15 cells assessed as LDH release at 1 to 100 uM incubated for 24 hrs relative to control; format: functional; settings: dose 1-100 µM
[46] = Cytotoxicity against human Cervical carcinoma cell assessed as inhibition of cell growth measured at 72 hrs; format: functional, cell-based
[47] = Upregulation of AHR expression in PPARgamma-silenced human SCC-15 cells at 1 uM incubated for 48 hrs Western blot analysis relative to control; format: functional

SMILES | Activity [1] | Activity (SCC-15 [2]) | IC50 (SCC-15 [3]) | Activity [4] | Activity [6] | Activity [7] | Activity (BALB/3T3) | EC50 (SCC-15 [9]) | IC50 (SCC-15 [10]) | EC50 (SCC-15 [11]) | Activity [13] | Activity (SCC-15 [16]) | Activity [19] | IC50 [20] | Activity (HaCaT) | Activity [22] | IC50 [23] | Activity [25] | Activity [26] | Activity [27] | also measured
O=C1CC(N2C(=O)/C(=C/C(Cl)=C/c3ccc([N+](=O)[O-])cc3)SC2=S)C(=O)N1c1ccc(Br)cc1 (centres undefined) | 73.1% | Tde | > 100 µM | 26.91% | 11.23% | 17.1% | Non-Toxic | 15.4 µM | 39.9 µM | 16.9 µM | 24.94% | 27.07% | 32.23% | > 100 µM | Non-Toxic | 57.04% | > 100 µM | 42.87% | 10.4% | 17% | Activity (SCC-15 [5]): 12%; Activity [8]: 21.08%; Activity (SCC-15 [12]): 2%; Activity (SCC-15 [14]): 1.2%; Activity [15]: 12.74%; Activity (SCC-15 [17]): 30%; Activity [18]: 18.45%; IC50 at 72 h [21]: 85.2 µM; Activity (SCC-15 [24]): 178.4%; Activity [28]: 14.43%; Activity (SCC-15 [29]): inactive; Activity [30]: 121.15%; Activity (SCC-15 [31]): 24.52%; Activity (SCC-15 [32]): 328%; Activity [33]: 39.67%; Activity [34]: 11.84%; IC50 at 72 h [35]: 83.6 µM; Activity (SCC-15 [36]): Dose-Dependent Effect; Activity [37]: 12.29%; Activity [38]: 8.55%
O=C1CC(N2C(=O)/C(=C/C(Cl)=C/c3ccc([N+](=O)[O-])cc3)SC2=S)C(=O)N1c1ccc(Cl)cc1 (centres undefined) | 82.31% | Tde | > 100 µM | 30.64% | 23.81% | 12.9% | Non-Toxic | 14.8 µM | 30.4 µM | 10.2 µM | 34.64% | 34.08% | 32.59% | > 100 µM | Non-Toxic | 55.58% | > 100 µM | 29.03% | 9.11% | 42.01% | Activity (SCC-15 [39]): inactive; IC50 (Glioblastoma cell line): 1 µM; Activity (SCC-15 [40]): 49.3%; IC50 (Leukemic tumor cell line): 1 µM; Activity (SCC-15 [41]): 18.64%; Activity [42]: 26.46%; Activity (SCC-15 [43]): 13.13%; Activity [28]: 46.82%; Activity (SCC-15 [44]): 15.81%; IC50 (Lung cancer cell line): 1 µM; IC50 (Colon carcinoma cell): 1 µM; Activity [30]: 135.01%; Activity (SCC-15 [31]): 31.6%; IC50 (Breast carcinoma cell): 1 µM; Activity (SCC-15 [45]): 2%; Activity [33]: 44.91%; Activity (SCC-15 [36]): Dose-Dependent Effect; IC50 [46]: 1 µM; Activity [47]: 17.79%
